In the CheMixHub viscosity set:

Assay: xn = mol fraction of the nth substance listed

O=CN1CCOCC1 + c1ccccc1
298.15 K, 101.3 kPa
Details | viscosity [mPa·s]
x2 = 0.03787 | 6.858
x2 = 0.07912 | 6.137
x2 = 0.1309 | 5.329
x2 = 0.22 | 4.199
x2 = 0.3483 | 2.992
x2 = 0.4314 | 2.381
x2 = 0.5526 | 1.734
x2 = 0.6351 | 1.413
x2 = 0.7176 | 1.157
x2 = 0.7536 | 1.058
x2 = 0.83 | 0.88
x2 = 0.894 | 0.767
x2 = 0.9506 | 0.671

NCc1ccccc1 + CCCCN
viscosity [mPa·s], 100 kPa
Details | x2 = 0.1 | x2 = 0.2 | x2 = 0.3 | x2 = 0.4 | x2 = 0.5 | x2 = 0.6 | x2 = 0.7 | x2 = 0.8 | x2 = 0.9
303.15 K | 1.324 | 1.204 | 1.068 | 0.964 | 0.847 | 0.748 | 0.654 | 0.578 | 0.513
313.15 K | 1.125 | 1.021 | 0.929 | 0.835 | 0.737 | 0.642 | 0.567 | 0.506 | 0.45
323.15 K | 0.965 | 0.878 | 0.791 | 0.718 | 0.639 | 0.567 | 0.5 | 0.446 | 0.396

NCc1ccccc1 + CCCCCO
viscosity [mPa·s], 101.33 kPa
Details | x1 = 0.1 | x1 = 0.2004 | x1 = 0.2999 | x1 = 0.4 | x1 = 0.4997 | x1 = 0.6 | x1 = 0.7003 | x1 = 0.8 | x1 = 0.8999
298.15 K | 3.257 | 3.009 | 2.798 | 2.599 | 2.419 | 2.25 | 2.088 | 1.943 | 1.808
303.15 K | 2.82 | 2.607 | 2.436 | 2.25 | 2.124 | 1.971 | 1.842 | 1.72 | 1.616
308.15 K | 2.406 | 2.283 | 2.133 | 1.979 | 1.841 | 1.734 | 1.624 | 1.526 | 1.454

CCCCCCCCCCCO + CCCCCCO
viscosity [mPa·s], 101.8 kPa
Details | x2 = 0.1577 | x2 = 0.4196 | x2 = 0.6279 | x2 = 0.7981 | x2 = 0.9389
298.15 K | 12.3 | 9.508 | 7.506 | 6.064 | 4.788
308.15 K | 8.55 | 6.727 | 5.412 | 4.436 | 3.545
318.15 K | 6.083 | 4.876 | 3.983 | 3.309 | 2.68

CCCCCCCCCCCCCCCCCC + c1ccccc1
101 kPa, x2 = 0.5
Details | viscosity [mPa·s]
298 K | 2.123
318 K | 1.501

CCOC(=O)CC(C)=O + CCCO
viscosity [mPa·s], 100 kPa
Details | x1 = 0.0644 | x1 = 0.1297 | x1 = 0.2035 | x1 = 0.2808 | x1 = 0.3716 | x1 = 0.4706 | x1 = 0.5808 | x1 = 0.7083 | x1 = 0.8379
293.15 K | 1.907 | 1.663 | 1.448 | 1.344 | 1.321 | 1.346 | 1.395 | 1.46 | 1.563
298.15 K | 1.675 | 1.515 | 1.404 | 1.32 | 1.279 | 1.281 | 1.295 | 1.336 | 1.413

S=C=S + c1ccccc1
298.15 K, 101 kPa
Details | viscosity [mPa·s]
x2 = 0.08675 | 0.376
x2 = 0.3427 | 0.446
x2 = 0.7541 | 0.544

CCC(=O)c1ccccc1 + CCCCOCCO
viscosity [mPa·s], 101 kPa
Details | x1 = 0.0996 | x1 = 0.1994 | x1 = 0.2992 | x1 = 0.399 | x1 = 0.499 | x1 = 0.599 | x1 = 0.6992 | x1 = 0.7994 | x1 = 0.8996
303.15 K | 2.333 | 2.24 | 2.148 | 2.056 | 1.964 | 1.873 | 1.782 | 1.692 | 1.602
308.15 K | 2.192 | 2.109 | 2.027 | 1.946 | 1.865 | 1.784 | 1.704 | 1.624 | 1.545
313.15 K | 2.044 | 1.972 | 1.901 | 1.831 | 1.762 | 1.692 | 1.622 | 1.554 | 1.486
318.15 K | 1.863 | 1.805 | 1.749 | 1.694 | 1.639 | 1.584 | 1.53 | 1.476 | 1.424
